Legend:
human GLP-1 receptor = target: T1, human GLP-1 receptor (Homo sapiens, UniProt P43220); assay: cAMP activity test (cAMP dynamic HTRF kit) in CHO-K1/GLP-1 receptor-expressing cells; assay type: cell-based; conditions: cAMP activity, CHO-K1/GLP-1 receptor-expressing cells; read-out: EC50
T1 construct: host or cells: CHO-K1
How it was run: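 Cells in HBSS with 0.1% BSA, 0.5 mM IBMX and 5 mM HEPES, then lysed; cAMP-d2 and anti-cAMP cryptate added for 3 h. HTRF read-out, where FRET signal is inversely proportional to intracellular cAMP.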

hERG = target: T2, hERG (Homo sapiens, UniProt Q12809); assay: hERG inhibition test (Predictor hERG Fluorescence Polarization assay kit); assay type: binding; conditions: probe kit Tracer (fluorescent hERG ligand), hERG % inhibition at 10 uM, relative to E-4031 and solvent control
T2 construct: purchased Invitrogen PV5365
How it was run: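 Competitive fluorescence-polarization binding of fluorescent tracer to hERG membrane preparation, 2.5 h at room temperature, mP read at 531/579 nm. % inhibition at 10 uM test compound, scaled between solvent control (0%) and E-4031 (100%).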

T1 sequence (P43220 24-463): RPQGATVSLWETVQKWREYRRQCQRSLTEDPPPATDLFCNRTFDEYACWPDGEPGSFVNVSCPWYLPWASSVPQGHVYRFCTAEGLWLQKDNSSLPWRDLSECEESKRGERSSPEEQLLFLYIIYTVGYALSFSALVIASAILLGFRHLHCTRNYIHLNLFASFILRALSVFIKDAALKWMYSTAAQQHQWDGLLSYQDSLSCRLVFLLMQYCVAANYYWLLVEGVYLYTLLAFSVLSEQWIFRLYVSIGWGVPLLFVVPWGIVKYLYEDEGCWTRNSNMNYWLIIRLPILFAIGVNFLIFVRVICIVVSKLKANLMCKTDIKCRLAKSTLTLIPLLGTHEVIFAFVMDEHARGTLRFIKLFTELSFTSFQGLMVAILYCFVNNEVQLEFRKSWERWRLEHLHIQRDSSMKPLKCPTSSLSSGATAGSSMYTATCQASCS
T2 sequence (Q12809 whole entry): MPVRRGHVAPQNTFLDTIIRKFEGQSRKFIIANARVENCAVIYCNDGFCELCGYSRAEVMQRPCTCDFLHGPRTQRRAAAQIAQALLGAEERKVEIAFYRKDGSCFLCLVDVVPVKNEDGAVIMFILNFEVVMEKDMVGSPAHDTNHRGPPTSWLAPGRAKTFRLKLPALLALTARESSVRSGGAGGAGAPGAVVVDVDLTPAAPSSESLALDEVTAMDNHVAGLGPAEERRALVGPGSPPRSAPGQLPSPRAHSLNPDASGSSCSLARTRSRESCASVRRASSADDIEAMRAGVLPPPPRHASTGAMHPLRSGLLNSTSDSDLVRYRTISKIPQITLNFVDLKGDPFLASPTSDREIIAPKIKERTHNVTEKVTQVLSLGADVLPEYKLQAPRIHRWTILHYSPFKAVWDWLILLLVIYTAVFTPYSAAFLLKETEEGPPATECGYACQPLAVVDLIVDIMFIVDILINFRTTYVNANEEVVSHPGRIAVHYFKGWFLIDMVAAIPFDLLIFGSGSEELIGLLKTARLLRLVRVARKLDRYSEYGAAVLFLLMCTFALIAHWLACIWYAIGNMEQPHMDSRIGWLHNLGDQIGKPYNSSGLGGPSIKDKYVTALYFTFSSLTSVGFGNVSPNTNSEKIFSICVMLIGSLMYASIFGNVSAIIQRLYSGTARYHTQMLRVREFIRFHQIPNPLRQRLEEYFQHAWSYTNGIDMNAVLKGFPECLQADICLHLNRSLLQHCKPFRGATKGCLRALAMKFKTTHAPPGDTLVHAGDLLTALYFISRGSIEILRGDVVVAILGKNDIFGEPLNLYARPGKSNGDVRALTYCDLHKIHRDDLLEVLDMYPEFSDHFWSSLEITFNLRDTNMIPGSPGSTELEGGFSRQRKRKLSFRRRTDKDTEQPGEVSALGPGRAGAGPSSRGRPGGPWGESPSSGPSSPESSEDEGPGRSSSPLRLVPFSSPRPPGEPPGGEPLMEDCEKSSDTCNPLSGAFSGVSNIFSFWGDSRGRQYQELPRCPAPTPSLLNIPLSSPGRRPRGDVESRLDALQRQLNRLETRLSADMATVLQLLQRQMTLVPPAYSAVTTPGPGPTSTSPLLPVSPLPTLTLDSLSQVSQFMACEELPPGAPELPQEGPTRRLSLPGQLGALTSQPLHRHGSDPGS

SMILES | EC50 (human GLP-1 receptor) | inhibition at 2.5 h, 10 µM (hERG)
O=C(O)c1ccc2nc(Cn3ccc(-c4cccc(OCc5ccc(Cl)cc5F)n4)cc3=O)n(C[C@@H]3CCCO3)c2c1 [Example 108, (S)-2-((4-(6-(4-chloro-2-fluorobenzyloxy)pyridin-2-yl)-2-oxopyridin-1(2H)-yl)methyl)-1-((tetrahydrofuran-2-yl)methyl)-1H-benzo[d]imidazole-6-carboxylic acid] | 130 nM | 4%
Cc1cc(Cc2nc3ccc(C(=O)O)cc3n2Cc2ccco2)ccc1-c1cccc(OCc2ccc(C#N)cc2F)c1 [Example 29, 2-((3′-(4-cyano-2-fluorobenzyloxy)-2-methylbiphenyl-4-yl)methyl)-1-(furan-2-ylmethyl)-1H-benzo[d]imidazole-6-carboxylic acid] | 900 nM | -0.75%
O=C(O)c1ccc2nc(Cc3ccc(-c4cccc(OCc5ccc(C(F)(F)F)cc5)n4)c(F)c3)n(CC3CCCO3)c2c1 (centres unmarked) [Example 97, 2-(3-fluoro-4-(6-(4-(trifluoromethyl)benzyloxy)pyridin-2-yl)benzyl)-1-((tetrahydrofuran-2-yl)methyl)-1H-benzo[d]imidazole-6-carboxylic acid] | 31 nM | 6.11%
Cc1cc(-c2cccc(OCc3ccc(Cl)cc3F)n2)ccc1Cc1nc2ccc(C(=O)O)cc2n1C[C@@H]1CCO1 [Example 134, (S)-2-(4-(6-((4-chloro-2-fluorobenzyl)oxy)pyridin-2-yl)-2-methylbenzyl)-1-(oxetan-2-ylmethyl)-1H-benzo[d]imidazole-6-carboxylic acid] | 190 nM | 28.3%
O=C(O)c1ccc2nc(Cn3cc(-c4cccc(OCc5ccc(Cl)cc5F)n4)cn3)n(C[C@@H]3CCO3)c2c1 [Example 131, (S)-2-((4-(6-((4-chloro-2-fluorobenzyl)oxy)pyridin-2-yl)-1H-pyrazol-1-yl)methyl)-1-(oxetan-2-ylmethyl)-1H-benzo[d]imidazole-6-carboxylic acid] | 1600 nM | -0.97%
O=C(O)c1ccc2nc(Cc3c(F)cc(-c4cccc(OCc5ccc(Cl)cc5F)n4)cc3F)n(CC3CCCO3)c2c1 (centres unmarked) [Example 65, 2-(4-(6-(4-chloro-2-fluorobenzyloxy)pyridin-2-yl)-2,6-difluorobenzyl)-1-((tetrahydrofuran-2-yl)methyl)-1H-benzo[d]imidazole-6-carboxylic acid] | 5 nM | 10.8%
O=C(O)c1ccc2nc(Cc3ccc(-c4cccc(OCc5ccc(Cl)cc5F)n4)cc3F)n(Cc3cccs3)c2c1 [Example 49, 2-(4-(6-(4-chloro-2-fluorobenzyloxy)pyridin-2-yl)-2-fluorobenzyl)-1-(thiophen-2-ylmethyl)-1H-benzo[d]imidazole-6-carboxylic acid] | 14 nM | 12.5%
O=C(O)c1ccc2nc(Cc3ccc(-c4cccc(OCc5ccc(Cl)cc5)n4)c(F)c3)n(C[C@@H]3CCO3)c2c1 [Example 123, (S)-2-(4-(6-((4-chlorobenzyl)oxy)pyridin-2-yl)-3-fluorobenzyl)-1-(oxetan-2-ylmethyl)-1H-benzo[d]imidazole-6-carboxylic acid] | 14 nM | -0.45%
O=C(O)c1ccc2nc(Cn3ccc(-c4cccc(OCc5ccc(Cl)cc5F)n4)cc3=O)n(CC3CCO3)c2c1 (centres unmarked) [Example 127, 2-((6-((4-chloro-2-fluorobenzyl)oxy)-2′-oxo-[2,4′-bipyridin]-1′(2′H)-yl)methyl)-1-(oxetan-2-ylmethyl)-1H-benzo[d]imidazole-6-carboxylic acid] | 20 nM | 2.3%
O=C(O)c1ccc2nc(Cc3ccc(-c4cccc(OCc5ccc(Cl)cc5)n4)cc3F)n(CC3CCCO3)c2c1 (centres unmarked) [Example 75, 2-(4-(6-(4-chlorobenzyloxy)pyridin-2-yl)-2-fluorobenzyl)-1-((tetrahydrofuran-2-yl)methyl)-1H-benzo[d]imidazole-6-carboxylic acid] | 23 nM | -7.98%
O=C(O)c1ccc2nc(Cc3ccc(-c4cccc(OCc5ccc(Cl)c(F)c5)n4)c(F)c3)n(CC3CCCO3)c2c1 (centres unmarked) [Example 99, 2-(4-(6-(4-chloro-3-fluorobenzyloxy)pyridin-2-yl)-3-fluorobenzyl)-1-((tetrahydrofuran-2-yl)methyl)-1H-benzo[d]imidazole-6-carboxylic acid] | 70 nM | -0.33%
Cc1cc(-c2cccc(OCc3ccc(C#N)cc3F)n2)ccc1Cc1nc2ccc(C(=O)O)cc2n1C[C@@H]1CCO1 [Example 133, (S)-2-(4-(6-((4-cyano-2-fluorobenzyl)oxy)pyridin-2-yl)-2-methylbenzyl)-1-(oxetan-2-ylmethyl)-1H-benzo[d]imidazole-6-carboxylic acid] | 14 nM | 41%
COCCn1c(Cc2ccc(-c3cccc(OCc4ccc(Cl)cc4F)n3)cc2)nc2ccc(C(=O)O)cc21 [Example 2, 2-(4-(6-(4-chloro-2-fluorobenzyloxy)pyridin-2-yl)benzyl)-1-(2-methoxyethyl)-1H-benzo[d]imidazole-6-carboxylic acid] | 63 nM | -11.9%
COCCn1c(Cc2c(F)cc(-c3cccc(OCc4ccc(Cl)cc4F)n3)cc2F)nc2ccc(C(=O)O)cc21 [Example 37, 2-(4-(6-(4-chloro-2-fluorobenzyloxy)pyridin-2-yl)-2,6-difluorobenzyl)-1-(2-methoxyethyl)-1H-benzo[d]imidazole-6-carboxylic acid] | 13 nM | -10.6%
O=C(O)c1ccc2nc(Cc3ccc(-c4cccc(OCc5ccc([N+](=O)[O-])cc5)n4)cc3F)n(CC3CCCO3)c2c1 (centres unmarked) [Example 88, 2-(2-fluoro-4-(6-(4-nitrobenzyloxy)pyridin-2-yl)benzyl)-1-((tetrahydrofuran-2-yl)methyl)-1H-benzo[d]imidazole-6-carboxylic acid] | 16 nM | 22.1%
COCCn1c(Cc2ccc(-c3cccc(OCc4ccc(Cl)cc4F)c3)cc2F)nc2ccc(C(=O)O)cc21 [Example 36, 2-((3′-(4-chloro-2-fluorobenzyloxy)-3-fluorobiphenyl-4-yl)methyl)-1-(2-methoxyethyl)-1H-benzo[d]imidazole-6-carboxylic acid] | 88 nM | -10.8%
N#Cc1ccc(COc2cccc(-c3ccc(Cc4nc5ccc(C(=O)O)cc5n4CC4CCCO4)c(F)c3)c2)c(F)c1 (centres unmarked) [Example 14, 2-((3′-(4-cyano-2-fluorobenzyloxy)-3-fluorobiphenyl-4-yl)methyl)-1-((tetrahydrofuran-2-yl)methyl)-1H-benzo[d]imidazole-6-carboxylic acid] | 93 nM | -6.08%
COCCn1c(Cc2ccc(-c3cccc(OCc4ccc(Cl)cc4F)n3)c(F)c2)nc2ccc(C(=O)O)cc21 [Example 6, 2-(4-(6-(4-chloro-2-fluorobenzyloxy)pyridin-2-yl)-3-fluorobenzyl)-1-(2-methoxyethyl)-1H-benzo[d]imidazole-6-carboxylic acid] | 25 nM | 22.8%
O=C(O)c1ccc2nc(Cc3ccc(-c4cccc(OCc5ccc(Cl)cc5F)c4)cc3F)n(C[C@H]3CCCO3)c2c1 [Example 41, (R)-2-((3′-(4-chloro-2-fluorobenzyloxy)-3-fluorobiphenyl-4-yl)methyl)-1-((tetrahydrofuran-2-yl)methyl)-1H-benzo[d]imidazole-6-carboxylic acid] | 110 nM | -16%
O=C(O)c1ccc2nc(Cc3ccc(-c4cccc(OCc5ccc(Cl)cc5F)n4)c(F)c3)n(C[C@H]3CCCO3)c2c1 [Example 52, (R)-2-(4-(6-(4-chloro-2-fluorobenzyloxy)pyridin-2-yl)-3-fluorobenzyl)-1-((tetrahydrofuran-2-yl)methyl)-1H-benzo[d]imidazole-6-carboxylic acid] | 110 nM | 24.2%
O=C(O)c1ccc2nc(Cc3cc(F)c(-c4cccc(OCc5ccc(Cl)cc5F)n4)cc3F)n(C[C@@H]3CCCO3)c2c1 [Example 116, (S)-2-(4-(6-((4-chloro-2-fluorobenzyl)oxy)pyridin-2-yl)-2,5-difluorobenzyl)-1-((tetrahydrofuran-2-yl)methyl)-1H-benzo[d]imidazole-6-carboxylic acid] | < 3.2 nM | 5.86%
N#Cc1ccc(COc2cc(-c3ccc(Cc4nc5ccc(C(=O)O)cc5n4CC4CCCO4)c(F)c3)ccc2F)c(F)c1 (centres unmarked) [Example 96, 2-((3′-(4-cyano-2-fluorobenzyloxy)-3,4′-difluorobiphenyl-4-yl)methyl)-1-((tetrahydrofuran-2-yl)methyl)-1H-benzo[d]imidazole-6-carboxylic acid] | 830 nM | 5.19%
O=C(O)c1ccc2nc(Cc3ccc(-c4cccc(OCc5ccc(Cl)cc5F)n4)c(F)c3)n(CC3CCCO3)c2c1 (centres unmarked) [Example 11, 2-(4-(6-(4-chloro-2-fluorobenzyloxy)pyridin-2-yl)-3-fluorobenzyl)-1-((tetrahydrofuran-2-yl)methyl)-1H-benzo[d]imidazole-6-carboxylic acid] | 6.5 nM | -1.31%
O=C(O)c1ccc2nc(Cc3ccc(-c4cccc(OCc5ccc(Cl)cc5F)n4)cc3)n(CC3CCCO3)c2c1 (centres unmarked) [Example 10, 2-(4-(6-(4-chloro-2-fluorobenzyloxy)pyridin-2-yl)benzyl)-1-((tetrahydrofuran-2-yl)methyl)-1H-benzo[d]imidazole-6-carboxylic acid] | 24 nM | -7.54%
COCCn1c(Cc2ccc(-c3cccc(OCc4ccc(C#N)cc4F)c3)cc2F)nc2ccc(C(=O)O)cc21 [Example 26, 2-((3′-(4-cyano-2-fluorobenzyloxy)-3-fluorobiphenyl-4-yl)methyl)-1-(2-methoxyethyl)-1H-benzo[d]imidazole-6-carboxylic acid] | 270 nM | 2.43%
